Results reported in publication PMC12130866, “Identification of the lydiamycin biosynthetic gene cluster in a plant pathogen guides structural revision and identification of molecular target” (Proceedings of the National Academy of Sciences of the …, 2025).
In brackets after ≈: the same amount, converted by molar mass. Numbered stars: 1 amine (or outer) side, 2 acyl side, 3 side chain; on linkers, the order of the positions; unused ones are H or OH. Bridge positions count the residues as written; N and C are the ends. Square brackets hold non-standard residues; d marks the D form. Peptide text beside a SMILES is read from it. * marks the point of attachment. Piz(1,6-dehydro) = O=C(O)[C@@H]1CCC=NN1; X2 = O=C([C@@H]1CCCNN1[*:1])[*:2]; X1 = CCCCC[C@H](CC(=O)O)C(=O)*

Assays:
[1] = tested on: R. fascians D188-5; experiment: In planta competition assay, WT or Δlyd against plasmid-free D188-5; settings: N. benthamiana seedlings, 1:1 mixtures, 1 wk; WT vs Δlyd relative fitness P = 0.0068, two-tailed t test
[2] = tested on: R. fascians D188 WT; settings: 72 h
[3] = tested on: R. fascians D188-5
[4] = tested on: mycobacteria; settings: cited from earlier work
[5] = tested on: Nicotiana plants
[6] = target: T1, E. coli PDF (Escherichia coli, UniProt P0A6K3); experiment: In vitro PDF inhibition assay, E. coli PDF, fML-pNA colorimetric coupled; assay type: biochemical; settings: in vitro inhibition of E. coli PDF (10 nM); fML-pNA 20 µM; Aeromonas aminopeptidase 0.8 U/mL; lydiamycin A 0-50 µM; HEPES buffer pH 7.5, 1% DMSO; 405 nm, room temperature; sigmoidal fit of initial velocities; n = 3 independent experiments, SD
T1 sequence (P0A6K3 whole entry): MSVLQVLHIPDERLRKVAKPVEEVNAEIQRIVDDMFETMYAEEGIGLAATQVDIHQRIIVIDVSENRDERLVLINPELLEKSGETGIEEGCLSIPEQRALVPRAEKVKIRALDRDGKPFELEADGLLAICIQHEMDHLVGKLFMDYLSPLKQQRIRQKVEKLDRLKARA

[7] = target: T1, E. coli PDF; experiment: Michaelis-Menten kinetics of E. coli PDF with fML-pNA; assay type: biochemical; settings: substrate fML-pNA, 405 nm, room temperature; 1% DMSO

Row | Compound | fitness effect of lydiamycin production in competition with D188-5 [1] | MIC [2] | MIC ([3]; 72 h) | sensitivity of R. fascians D188-5 relative to R. fascians WT ([3]; D188-5 more sensitive than WT, from the MICs) | inhibition of mycobacteria [4] | role of lydiamycin A production in leafy gall disease development ([5]; WT versus Δlyd, plant or leafy gall mass at 4 wk) | phytotoxic activity ([5]; concluded from plant/gall mass, seedling root length and excised leaf assays, R. fascians WT versus Δlyd) | IC50 [6] | Km [7] | kcat [7]
1 | CCCCC[C@H](CC(=O)O)C(=O)N1N=CCC[C@H]1C(=O)N[C@H]1COC(=O)[C@@H]2CCCNN2C(=O)[C@H](C)NC(=O)[C@@H](CC(C)C)NC1=O [lydiamycin A] (X1-[Piz(1,6-dehydro)]S[dL]A[X2]; ester 2-C) | significant fitness benefit | > 600 µg/mL | 10 µg/mL (≈ 15.1 µM) | at least 60 times | previously shown to display antimycobacterial activity | not required for leafy gall disease development | does not have phytotoxic activity | 6 µM |  | 
2 | formyl-methionyl-leucyl-p-nitroaniline [fML-pNA] |  |  |  |  |  |  |  |  | 27 µM | 7 s⁻¹
